Assay [1] concerns the target T1, AChE (Electrophorus electricus, UniProt O42275).
T1 construct: extracted from Electrophorus electricus (electric eel); purchased Sigma-Aldrich; host or cells: Electrophorus electricus (extracted)
The assay is described as follows: biochemical. Also on record: species or system Electrophorus electricus (electric eel). The procedure:
The electronic spectra and the AChE inhibition assays were performed in a 1-cm path length quartz cell with a Perkin Elmer Lambda 35 spectrophotometer equipped with a temperature programmer PTP1 + 1 Peltier System (T = 25.0 ± 0.1 °C). The enzyme AChE 500 U, extracted from Electrophorus electricus (electric eel), was purchased from Sigma-Aldrich.
The enzymatic activity of AChE was determined using an adaptation of the Ellman’s method, as described previously[29]^,[32]. Firstly, a stock solution of AChE was prepared by dissolving enzyme 500 U in 10 mL of tris(hydroxymethyl)aminomethane (TRIS) buffer (50 mM, pH 8). Then, 4–(2-hydroxyethyl)-1-piperazineethanesulfonic acid (HEPES) buffer was used for further dilution of the enzyme solution therefore obtaining the final working solution of AChE. The assay solution consisted of 374 µL of HEPES buffer (50 mM and pH 8.0), a variable volume (10–50 µL) of the compound’s stock solution (1 mg/mL of MeOH), 476 µL of 3 mM bis(3-carboxy-4-nitrophenyl) disulphide (DTNB), 25 µL of AChE stock solution and the necessary amount of methanol to attain the same volume of sample mixture in a 1 mL cuvette. After mixing, samples were left to incubate for 15 min and then 75 µL of 16 mM acetylthiocholine iodide (AChI) solution was added and immediately the reaction was monitored at 405 nm for 5 min. Firstly, enzyme activity was determined by measuring the rate of enzymatic reaction in solution by recording absorbance (with or without enzyme) at 405 nm. To calculate the percent inhibition of AChE, the enzyme activity in the presence of increasing concentrations of the test compound, as well as for a blank reaction (methanol without compounds), were measured at 405 nm.
Where v1is the initial reaction rate in the presence of the inhibitor and v0 is the initial rate of the control reaction. The curves of inhibition were obtained using a plot of percentage of enzymatic inhibition versus inhibitor concentration, and a calibration curve was obtained from which the linear regression parameters were obtained.

In assay [2] the target is T2, Aβ1-42 (Homo sapiens, UniProt P05067).
T2 construct: Amyloid β-peptide (1–42), Aβ1-42, was purchased from GeneCust; purchased GeneCust
The assay is described as follows: biochemical. The settings on record: self-mediated Aβ42 aggregation without copper, inhibitor 80 µM, ThT fluorescence; for inhibition at 80 µM: read-out: Aβ aggregation inhibition, Self-Aβ aggr. The text has this: (§1) The Aβ amyloid plaques are one of the main hallmarks of AD and they result from over production and aggregation of β-amyloid peptide, which can accumulate outside the neurons, by self-mediated or Cu^2+-induced process, interfering with the synaptic impairment, neurotransmission and memory. Therefore, anti-AD drugs have been designed aimed to disrupt and disaggregate the Aβ’s fibrils into monomers, obtaining non-toxic forms of β-secretase’s products. To assess the effect of these new hybrids in the inhibition of amyloid peptide aggregation, a selection of the compounds was in vitro assayed, based on the thioflavin T (ThT) method. Indeed ThT is a histochemical dye able to create ionic or hydrophobic interactions with the peptide β–sheets, the predominant secondary structure of the amyloid fibrils in aqueous solutions[36]. This binding interactions can be monitored by fluorimetry since the presence of ThT-fibrils increases the absorbance and the emission of the ThT dye, and induces red shifts on the absorbance (from 385 to 446 nm) and emission peaks (from 445 to 485 nm)[14]. All the measurements were performed after incubation of the self-mediated and Cu^2+-induced Aβ aggregates in the presence/absence of the herein studied compounds. […]. […] This may be rationalised on the basis of their copper chelating capacity, as previously shown by other metal chelating compounds[14]^,[38]. Furthermore, despite some exceptions (e.g. 20 and 24), the increase in linker length and the chloro TAC substitution induce some small negative effects in the inhibition of Aβ self-aggregation.
(§2) For the study of the β-amyloid (Aβ) aggregation, the ThT fluorescence assay was performed using a Varian Cary Eclipse fluorimeter at the following wavelengths: excitation (446 nm) and emission (485 nm). Amyloid β-peptide (1–42), Aβ1-42, was purchased from GeneCust as a lyophilised powder stored at −20 °C. TEM assays were performed with a Hitachi H8100 transmission electron microscope with a LaB6 filament (200 kV, 10000–20000 × magnification) at MicroLab/IST.
(§3) Among all the methods to measure the aggregation of Aβ1-42, the assay based on Thioflavin T (ThT) is the standard procedure based on the fluorescence of this dye[49]^,[50]. This test is performed with Aβ1-42 peptide previously prepared by dissolving it in 1,1,1,3,3,3–hexafluoro-2-propanol (HFIP), an organic solvent useful to solubilise and monomerize the β–sheet protein aggregates and reserve them in the fridge. Films are re-dissolved in an Eppendorf tube with a fresh solution of a mixture of CH3CN/Na2CO3/NaOH, to have a stable stock solution, and afterwards, added to an optimised fibrillation phosphate buffer. The samples were prepared using MeOH (1 mg/mL) as solvent, followed by incubation in a water bath for 24 h at 37 °C with gentle shaking. After incubation, the samples were added to a 96-well plate (BD Falcon) with 180 µL of 5 µM ThT in 50 mM glycine-NaOH (pH 8.5) buffer. Blank samples were prepared for each concentration in a similar way, devoid of peptide. After 5-min incubation with the dye, the ThT fluorescence was measured at 446 nm (excitation) and 485 nm (emission).

For assay [3], the target named is T2, Aβ1-42. The assay is described as follows: Inhibition of Cu2+-induced Aβ1-42 aggregation, thioflavin T fluorescence. As to conditions: Aβ42 aggregation with copper (40 µM), inhibitor 80 µM, ThT fluorescence; for inhibition at 80 µM: read-out: Aβ aggregation inhibition, Cu-ind Aβ aggr. The class given is biochemical.
Excerpt: as §1, §2
as §3, with “The samples were prepared using MeOH (1 mg/mL) as solvent, followed by incubation in a water bath for 24 h at 37 °C with gentle shaking. After incubation, the samples were added to a 96-well plate (BD Falcon) with 180 µL of 5 µM ThT in 50 mM glycine-NaOH (pH 8.5) buffer. Blank samples were prepared for each concentration in a similar way, devoid of peptide.” left out

The nature of assay [4]: Radical scavenging (anti-oxidant) activity, DPPH method. It is filed as physicochemical. As to conditions: DPPH in methanol, 30 min, room temperature. The procedure:
A selection of the newly synthesised hybrids was tested for their radical scavenging activity (anti-oxidant activity, EC50), based on their interaction with the 2,2-diphenyl-1-picrylhydrazyl (DPPH) free radical, as previously described.
The anti-oxidant capacity or, more precisely, radical scavenging activity based on the electron and proton donation ability, was evaluated by the DPPH method previously described[29]^,[46]. To a 2.5 mL solution of DPPH (0.002%) in methanol, solutions of each compound were added in different volumes to obtain different concentrations in a 3.5 mL final volume. The samples were incubated for 30 min at room temperature. The absorbance was measured at 517 nm against the corresponding blank (methanol). The antioxidant activity was calculated by Eq. (1)^29. (1) %AA = ((ADPPH−Asample)/ADPPH) × 100
The tests were carried out in triplicate. The compound concentration providing 50% of antioxidant activity (EC50) was obtained by plotting the antioxidant activity against the compound concentration.
Background: Loss of DPPH colour is used to gauge radical scavenging.

Setting [5] is: AChE from Electric eel, mean of five independent experiments, read-out: AChE inhibition IC50.

The structures appear in SMILES notation. Where two headings read alike, the source gives them in different places.

T1 sequence (O42275 24-633): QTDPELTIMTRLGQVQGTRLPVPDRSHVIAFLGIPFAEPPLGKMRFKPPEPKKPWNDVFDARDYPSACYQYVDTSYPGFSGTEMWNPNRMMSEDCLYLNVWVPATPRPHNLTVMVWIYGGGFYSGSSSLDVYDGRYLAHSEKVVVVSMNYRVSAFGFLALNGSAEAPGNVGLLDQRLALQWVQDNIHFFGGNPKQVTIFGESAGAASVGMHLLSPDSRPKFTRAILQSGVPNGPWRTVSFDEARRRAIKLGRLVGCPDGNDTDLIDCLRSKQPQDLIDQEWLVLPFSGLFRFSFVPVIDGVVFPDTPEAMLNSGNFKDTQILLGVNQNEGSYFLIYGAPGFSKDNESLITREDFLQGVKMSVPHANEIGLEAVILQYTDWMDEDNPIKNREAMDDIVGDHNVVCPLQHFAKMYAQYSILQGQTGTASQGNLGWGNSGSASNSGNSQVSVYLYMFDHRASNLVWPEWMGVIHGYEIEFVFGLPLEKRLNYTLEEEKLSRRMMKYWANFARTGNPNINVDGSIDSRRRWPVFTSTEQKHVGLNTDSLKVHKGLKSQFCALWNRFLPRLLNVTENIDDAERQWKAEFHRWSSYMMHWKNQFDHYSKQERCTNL
T2 sequence (P05067 672-713 limits assumed): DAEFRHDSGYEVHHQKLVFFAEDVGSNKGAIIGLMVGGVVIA

The IC50 is the point on the concentration scale where inhibition reaches its midpoint. Usually inhibition stands for the relative decrease from the control value, in per cent. For orientation: EC50 means the concentration needed to bring the measured effect to its halfway point. In the case of `O=C(NCCCCNc1c2c(nc3cc(Cl)ccc13)CCCC2)c1cc2cccc(O)c2o1` [Compound 24, N-(4-((6-chloro-1,2,3,4-tetrahydroacridin-9-yl)amino)butyl)-7-hydroxybenzofuran-2-carboxamide], the IC50 in assay [1] (setting [5]) came to 0.61 µM. Besides, the inhibition at 80 µM in assay [2] was 43.4%; in assay [3] it was 53.4%. In assay [4], a half-maximal effect (EC50) was put at 434 µM.

As for `COc1cccc2cc(C(=O)NCCCNc3c4c(nc5cc(Cl)ccc35)CCCC4)oc12` [Compound 19, N-(3-((6-chloro-1,2,3,4-tetrahydroacridin-9-yl)amino)propyl)-7-methoxybenzofuran-2-carboxamide], the IC50 in assay [1] (setting [5]) is 0.13 µM. The inhibition at 80 µM in assay [2] came out at 57.8%.

On to `O=C(NCCCNc1c2c(nc3ccccc13)CCCC2)c1cc2cccc(O)c2o1` [Compound 21, 7-Hydroxy-N-(3-((1,2,3,4-tetrahydroacridin-9-yl)amino)propyl)benzofuran-2-carboxamide], for which the IC50 in assay [1] (setting [5]) amounted to 0.81 µM. The inhibition at 80 µM in assay [2] is 44%; in assay [3] it was 50.1%. This compound displayed an EC50 in assay [4] of 480 µM.

Regarding `O=C(NCCCNc1c2c(nc3cc(Cl)ccc13)CCCC2)c1cc2cccc(O)c2o1` [Compound 23, N-(3-((6-chloro-1,2,3,4-tetrahydroacridin-9-yl)amino)propyl)-7-hydroxybenzofuran-2-carboxamide], 0.13 µM corresponded to half-maximal inhibition in assay [1] (IC50). Besides, the “Aβ aggregation inhibition, Self-Aβ aggr” value in assay [2] is 31.5%. In assay [3], the “Aβ aggregation inhibition, Cu-ind Aβ aggr” value is given as 52.5%.

`COc1cccc2cc(C(=O)NCCCCNc3c4c(nc5cc(Cl)ccc35)CCCC4)oc12` [Compound 20, N-(4-((6-chloro-1,2,3,4-tetrahydroacridin-9-yl)amino)butyl)-7-methoxybenzofuran-2-carboxamide]: the IC50 in assay [1] (setting [5]) is 0.67 µM. Moreover, in assay [2], the inhibition at 80 µM was found to be 64.4%. In assay [4], the EC50 was > 1000 µM.

The values above are taken from paper PMC7567501 (Journal of Enzyme Inhibition and Medicinal Chemistry, 2019).
